Assay results published in ChEMBL document CHEMBL1255229, “Novel antimicrobial peptides that exhibit activity against select agents and other drug resistant bacteria” (2010).
≈ marks a conversion by molar mass, not a printed value. Starred links: 1 amine or outer side, 2 acyl side, 3 side chain; linkers in the order of their positions; H or OH if unused. Non-standard residues stand in square brackets, D forms with d. Residues, ends and D or L forms follow the SMILES beside them. X1 = O=C([C@@H]1CN([*:1])C2CCCCC21)[*:2]; Tic = O=C(O)[C@@H]1Cc2ccccc2CN1; Orn = NCCC[C@H](N)C(=O)O

Legend:
Type in all cases: functional
Acinetobacter baumannii [1] = test: Antimicrobial activity against Acinetobacter baumannii WRAIR after 24 hrs
Yersinia pestis = test: Antimicrobial activity against Yersinia pestis CO92 after 24 hrs; details: CO92, 24 h
Francisella tularensis = test: Antimicrobial activity against Francisella tularensis SCHU-S4 after 24 hrs; details: SCHU-S4, 24 h
[2] = tested on: Burkholderia pseudomallei; test: Antimicrobial activity against Burkholderia pseudomallei BURK003(1026b) after 24 hrs
Brucella abortus = test: Antimicrobial activity against Brucella abortus 2308 after 24 hrs; details: Brucella abortus, 2308, 24 h
Brucella melitensis = test: Antimicrobial activity against Brucella melitensis 16 M after 24 hrs
Bacillus anthracis = test: Antimicrobial activity against Bacillus anthracis Ames after 24 hrs
Acinetobacter baumannii [3] = test: Antimicrobial activity against Acinetobacter baumannii ATCC 19606 after 24 hrs; details: ATCC 19606 = CIP 70.34 = JCM 6841, 24 h
Staphylococcus aureus = test: Antimicrobial activity against methicillin-resistant Staphylococcus aureus ATCC 33591 after 24 hrs; details: ATCC 33591, 24 h
Burkholderia mallei = test: Antimicrobial activity against Burkholderia mallei ATCC 23444 after 24 hrs; details: ATCC 23444, 24 h
Brucella suis = test: Antimicrobial activity against Brucella suis ATCC 23445 after 24 hrs; details: ATCC 23445, 24 h

| SMILES | MIC (Acinetobacter baumannii [1]) [µM] | MIC (Yersinia pestis) [µM] | MIC (Francisella tularensis) [µM] | MIC [2] [µM] | MIC (Brucella abortus) [µM] | MIC (Brucella melitensis) [µM] | MIC (Bacillus anthracis) [µM] | MIC (Acinetobacter baumannii [3]) [µM] | MIC (Staphylococcus aureus) [µM] | MIC (Burkholderia mallei) [µM] | MIC (Brucella suis) [µM] |
| --- | --- | --- | --- | --- | --- | --- | --- | --- | --- | --- | --- |
| CC(C)C[C@H](NC(=O)[C@@H](N)CCCCN)C(=O)N1Cc2ccccc2C[C@H]1C(=O)N1C[C@@H](C(=O)N[C@@H](CCCCN)C(=O)N2Cc3ccccc3C[C@H]2C(=O)N2C[C@@H](C(=O)N[C@@H](Cc3ccccc3)C(=O)N3Cc4ccccc4C[C@H]3C(=O)N3C[C@@H](C(=O)N[C@@H](CCCCN)C(=O)N4Cc5ccccc5C[C@H]4C(=O)N4C[C@@H](C(=O)N[C@@H](Cc5ccccc5)C(=O)N5Cc6ccccc6C[C@H]5C(=O)N5C[C@@H](C(=O)N[C@@H](CCCCN)C(=O)N6Cc7ccccc7C[C@H]6C(=O)N6C[C@@H](C(=O)N[C@@H](CCCCN)C(=O)N[C@@H](CCCCN)C(=O)N[C@@H](CCCCN)C(=O)N[C@@H](CCCCN)C(N)=O)C7CCCCC76)C6CCCCC65)C5CCCCC54)C4CCCCC43)C3CCCCC32)C2CCCCC21 (stereo not given in full) (H-KL[Tic][X1]K[Tic][X1]F[Tic][X1]K[Tic][X1]F[Tic][X1]K[Tic][X1]KKKK-NH2) | 150 (≈ 497 µg/mL) | 150 (≈ 497 µg/mL) | 150 (≈ 497 µg/mL) | 150 (≈ 497 µg/mL) | 150 (≈ 497 µg/mL) | 150 (≈ 497 µg/mL) | 150 (≈ 497 µg/mL) | 9.3 (≈ 30.8 µg/mL) | 150 (≈ 497 µg/mL) | 150 (≈ 497 µg/mL) | 150 (≈ 497 µg/mL) |
| CC(C)C[C@H](NC(=O)[C@@H](N)CCCCN)C(=O)N1Cc2ccccc2C[C@H]1C(=O)N1C[C@@H](C(=O)N[C@@H](CCCCN)C(=O)N2Cc3ccccc3C[C@H]2C(=O)N2C[C@@H](C(=O)N[C@@H](Cc3ccccc3)C(=O)N3Cc4ccccc4C[C@H]3C(=O)N3C[C@@H](C(=O)N[C@@H](CCCCN)C(=O)N4Cc5ccccc5C[C@H]4C(=O)N4C[C@@H](C(=O)N[C@@H](Cc5ccccc5)C(=O)N5Cc6ccccc6C[C@H]5C(=O)N5C[C@@H](C(=O)N[C@@H](CCCCN)C(=O)N6Cc7ccccc7C[C@H]6C(=O)N6C[C@@H](C(=O)N[C@@H](CCCCN)C(=O)N[C@@H](CCCNC(=N)N)C(N)=O)C7CCCCC76)C6CCCCC65)C5CCCCC54)C4CCCCC43)C3CCCCC32)C2CCCCC21 (stereo not given in full) (H-KL[Tic][X1]K[Tic][X1]F[Tic][X1]K[Tic][X1]F[Tic][X1]K[Tic][X1]KR-NH2) | 162 (≈ 500 µg/mL) | 162 (≈ 500 µg/mL) | 81 (≈ 250 µg/mL) | 162 (≈ 500 µg/mL) | 500 (≈ 1540 µg/mL) | 162 (≈ 500 µg/mL) | 40.5 (≈ 125 µg/mL) | 40.5 (≈ 125 µg/mL) | 162 (≈ 500 µg/mL) | 162 (≈ 500 µg/mL) | 162 (≈ 500 µg/mL) |
| CC(C)C[C@H](NC(=O)[C@@H](N)CCCN)C(=O)N1Cc2ccccc2C[C@H]1C(=O)N1C[C@@H](C(=O)N[C@@H](CCCN)C(=O)N2Cc3ccccc3C[C@H]2C(=O)N2C[C@@H](C(=O)N[C@@H](Cc3ccccc3)C(=O)N3Cc4ccccc4C[C@H]3C(=O)N3C[C@@H](C(=O)N[C@@H](CCCN)C(=O)N4Cc5ccccc5C[C@H]4C(=O)N4C[C@@H](C(=O)N[C@@H](Cc5ccccc5)C(=O)N5Cc6ccccc6C[C@H]5C(=O)N5C[C@@H](C(=O)N[C@@H](CCCN)C(=O)N6Cc7ccccc7C[C@H]6C(=O)N6C[C@@H](C(=O)N[C@@H](CCCN)C(=O)N[C@@H](CCCN)C(=O)N[C@@H](CCCN)C(=O)N[C@@H](CCCN)C(N)=O)C7CCCCC76)C6CCCCC65)C5CCCCC54)C4CCCCC43)C3CCCCC32)C2CCCCC21 (stereo not given in full) (H-[Orn]L[Tic][X1][Orn][Tic][X1]F[Tic][X1][Orn][Tic][X1]F[Tic][X1][Orn][Tic][X1][Orn][Orn][Orn][Orn]-NH2) | 156 (≈ 499 µg/mL) | 156 (≈ 499 µg/mL) | 156 (≈ 499 µg/mL) | 156 (≈ 499 µg/mL) | 156 (≈ 499 µg/mL) | 156 (≈ 499 µg/mL) | 156 (≈ 499 µg/mL) | 9.77 (≈ 31.3 µg/mL) | 156 (≈ 499 µg/mL) | 156 (≈ 499 µg/mL) | 156 (≈ 499 µg/mL) |
| CC1(C)S[C@@H]2[C@H](NC(=O)[C@H](N)c3ccccc3)C(=O)N2[C@H]1C(=O)O [AMPICILLIN] | 1430 (≈ 500 µg/mL) | 0.8 (≈ 0.28 µg/mL) | 0.09 (≈ 0.0314 µg/mL) | 0.09 (≈ 0.0314 µg/mL) | 11 (≈ 3.84 µg/mL) | 11 (≈ 3.84 µg/mL) | 0.4 (≈ 0.14 µg/mL) | 179 (≈ 62.5 µg/mL) | 93 (≈ 32.5 µg/mL) | 0.09 (≈ 0.0314 µg/mL) | 0.8 (≈ 0.28 µg/mL) |
| C[C@H]1c2cccc(O)c2C(=O)C2=C(O)[C@]3(O)C(=O)C(C(N)=O)=C(O)[C@@H](N(C)C)[C@@H]3[C@@H](O)[C@@H]21 [DOXYCYCLINE] | 0.56 (≈ 0.249 µg/mL) | 0.56 (≈ 0.249 µg/mL) | 0.09 (≈ 0.04 µg/mL) | 0.09 (≈ 0.04 µg/mL) | 0.56 (≈ 0.249 µg/mL) | 0.56 (≈ 0.249 µg/mL) | 0.27 (≈ 0.12 µg/mL) | 0.56 (≈ 0.249 µg/mL) | 17.6 (≈ 7.82 µg/mL) | 0.09 (≈ 0.04 µg/mL) | 0.56 (≈ 0.249 µg/mL) |
